In EP2151237A1, “PHARMACEUTICAL COMPOSITION COMBINING A NON-STEROIDAL ANTI-INFLAMMATORY AGENT AND AN ANTICONVULSANT AGENT” (priority 2007, dated 2008):

Legend:
[1] = test system: α2δ, which are ancillary subunits of voltage-activated calcium channels; conditions: cited from earlier work
other common receptors = conditions: benzodiazepine, glutamate, NMDA, α1, α2, β-adrenergic, muscarinic, nicotinic, dopaminergic, histaminic, serotoninergic, opiate, canabinoid receptors, voltage-dependent calcium or sodium channels; cited from earlier work
[2] = cited from earlier work
[3] = test system: A-carrageenin-induced hyperalgesia; test: A-carrageenin-induced peripheral inflammatory hyperalgesia in rat paw, paw latency (SLP); conditions: for ED50: Rattus norvegicus, po, 2 h, read-out: DE50 value; for peak effect / maximum effect time: time after administration, ipsilateral paw SLP
Method: In this study, an isobolographic analysis was conducted in order to test the interaction between Gabapentin and Meloxicam administered under three different conditions.
Sprague-Dawley male rats were used, with an approximate weight of 200-300 g. […] Rats were used once and they only received one dose of the drugs or the combination thereof.
Rats were placed in a spin cylinder to 4 rpm and one of their paws was connected to a computer terminal. After acclimatization for 1 hour, rats were administered 100 µl of 1% A-carrageenin solution on the plantar surface of one rear paw.
These fixed dosage ratios were selected by a DE50 value range for each drug and reciprocal ratio.
In order to determine the interaction nature, the dosage-derived relationship-response for the total dosage of Gabapentin and Meloxicam, was compared to the theoretical dose relationship-additive by a standard parallel line method.

[4] = Chromatographic testing of blood samples (plasma concentrations); type: in vivo, Sprague-Dawley male rats; conditions: blood samples taken after the assessments
Text: After such assessments, rats were anesthetized with halothane and blood samples were taken for chromatographic testing.

[5] = in its acid form; higher than Piroxicam; cited from earlier work
[6] = cited from earlier work; remark: listed apart in the source
rat stomachs = conditions: cited from earlier work
[7] = cited from earlier work; remark: listed apart in the source

SMILES | affinity to α2δ proteins [1] | affinity to other common receptors (other common receptors) | time to maximum plasma concentrations ([2]; after the administration) | binding to plasmatic proteins ([2]; plasma) | ED50 [3] | contralateral paw response latencies ([3]; non-swollen contralateral rear paw) | peak effect / maximum effect time [3] | effect of additional presence of Meloxicam on plasma concentrations of Gabapentin [4] | membrane solubility relative to Piroxicam [5] | solubility in water [6] | gastric ulcerogenicity (rat stomachs) | concentration ([7]; approximately 50 minutes after the administration) | adherence to plasmatic proteins ([7]; in vivo) | part of the administered dose eliminated in urine ([7]; the rest is excreted in faeces)
NCC1(CC(=O)O)CCCCC1 [Gabapentin] | high affinity | no affinity | ≤ 3 h | 3% | 19.2 mg/kg | did not show any alteration | 120 min |  |  |  |  |  |  | 
Cc1cnc(NC(=O)C2=C(O)c3ccccc3S(=O)(=O)N2C)s1 [Meloxicam, 4-hydroxy-2-methyl-N-(5-methyl-2-thiazolyl)-2H benzotiazine-3-carboxamide-1,1-dioxide] |  |  |  |  | 0.46 mg/kg |  | 120 min | does not alter | 10 fold | virtually insoluble | minimal gastric ulcerogenicity | 1600 ng/mL | 99% | Around a half
